From patent US20260216350A1 (UNIVERSITY OF NOTRE DAME DU LAC, priority 2023, published 2026)

Experiments:
STZ diabetic mice [1] = experiment: In vivo activity verification in overnight-fasted STZ diabetic mice; design: species or system mouse; settings: 0.1 mg/kg s.c.
Method: (§2) STZ Mouse Model. A chemically induce diabetes mouse model were established in male C57BL6/J mice (8 weeks, 25 g, Jackson Laboratory) using streptozotocin (STZ), according to common protocols. Mice were fasted for 4 h prior to injection with STZ at 150 mg/kg i.p., dissolved in pH 4.5 citrate buffer. Treated mice were fasted for an additional 0.5 h and were then supplied with food and water as normal. Treated mice were allowed to develop diabetes for 7 d, and diabetes was verified using handheld blood glucose meters (CVS), targeting unfasted blood glucose level (BGL) above 600 mg/dL.
In Vivo Activity Verification. STZ induced diabetic mice were fasted for 8 h on the eighth day following induction, and mice with BGL>350 mg/dL in their overnight fasted state were randomly divided into groups (n=4/group). […] BGLs for each group were continuously monitored for 6 h after treatment. Mice were fasted during the entire experiment.

[2] = system: STZ-induced diabetic mouse model; experiment: Determination of functional formulation and dose in STZ mice; settings: unmodified insulin 0.17 mg/kg; complexes 0.17 or 3.5 mg/kg Insulin-DiPBA
Method: as §2
Mice were challenged with three intraperitoneal glucose tolerance tests (IPGTT).

STZ diabetic mice [3] = experiment: Long term blood glucose control study (serial dosing); type: in vivo, mouse
Method: (§1) STZ Mouse Model. […] Specifics of these studies are detailed here:
Long term blood glucose control study. Healthy mice were first weighed individually and injected STZ following the above protocol. […] Mice were fed after treatment injection and brought back to their cage on Day 0. […] For all other groups, 48 h post treatment injection, mice were fasted for 5 h to adjust for time since last eating, followed with BGL measurement. The same process was repeated at 96 h following treatment injection. After measurement, mice were weighed individually. Mice were then re-dosed with the same formula every 5 days, collecting BGL at 48 h and 96 h following treatment with a 5 h fast; the process was repeated for one month.

[4] = system: STZ-induced diabetic mice; experiment: Multi-day blood glucose control study; type: in vivo, mouse
Method: as §1
Multi-Day Blood Glucose Control Study. […] BGL was then monitored for an additional 3 h following IPGTT. Mice were fasted during the entire IPGTT period with free access to water. Mice were fed after IPGTT. At 48 h post treatment, mice were fasted for 5 h followed by an IPGTT challenge for 3 h. Mice were then fed at the end of IPGTT. The IPGTT challenges were repeated on Day 4 and Day 6. Area under the curve (AUC) for each IPGTT cycle was calculated using the trapezoidal rule and statistically analyzed using GraphPad Prism v 9.0.

insulin receptor = insulin receptor (Homo sapiens, UniProt P06213); settings: cited from earlier work
insulin receptor, sequence (P06213 28-758 limits assumed, species assumed): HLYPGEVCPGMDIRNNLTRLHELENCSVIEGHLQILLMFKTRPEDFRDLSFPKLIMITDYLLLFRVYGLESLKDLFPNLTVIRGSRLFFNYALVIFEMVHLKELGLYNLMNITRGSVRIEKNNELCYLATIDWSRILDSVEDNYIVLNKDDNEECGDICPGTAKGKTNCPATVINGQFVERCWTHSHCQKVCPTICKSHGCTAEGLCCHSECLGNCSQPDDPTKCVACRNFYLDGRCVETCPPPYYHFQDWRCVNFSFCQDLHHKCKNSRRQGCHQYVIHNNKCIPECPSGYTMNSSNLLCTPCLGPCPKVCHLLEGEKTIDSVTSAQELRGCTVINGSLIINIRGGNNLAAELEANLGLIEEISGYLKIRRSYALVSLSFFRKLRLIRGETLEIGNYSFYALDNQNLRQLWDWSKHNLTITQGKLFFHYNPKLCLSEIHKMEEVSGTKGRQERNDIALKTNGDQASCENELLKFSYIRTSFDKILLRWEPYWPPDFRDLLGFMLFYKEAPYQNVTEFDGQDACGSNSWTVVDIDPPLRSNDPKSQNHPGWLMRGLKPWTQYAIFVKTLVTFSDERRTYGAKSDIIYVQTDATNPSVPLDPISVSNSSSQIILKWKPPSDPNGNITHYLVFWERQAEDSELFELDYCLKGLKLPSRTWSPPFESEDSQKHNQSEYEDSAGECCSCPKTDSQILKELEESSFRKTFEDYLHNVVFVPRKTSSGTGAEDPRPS
insulin receptor, sequence (P06213 763-1382 partner limits assumed, species assumed): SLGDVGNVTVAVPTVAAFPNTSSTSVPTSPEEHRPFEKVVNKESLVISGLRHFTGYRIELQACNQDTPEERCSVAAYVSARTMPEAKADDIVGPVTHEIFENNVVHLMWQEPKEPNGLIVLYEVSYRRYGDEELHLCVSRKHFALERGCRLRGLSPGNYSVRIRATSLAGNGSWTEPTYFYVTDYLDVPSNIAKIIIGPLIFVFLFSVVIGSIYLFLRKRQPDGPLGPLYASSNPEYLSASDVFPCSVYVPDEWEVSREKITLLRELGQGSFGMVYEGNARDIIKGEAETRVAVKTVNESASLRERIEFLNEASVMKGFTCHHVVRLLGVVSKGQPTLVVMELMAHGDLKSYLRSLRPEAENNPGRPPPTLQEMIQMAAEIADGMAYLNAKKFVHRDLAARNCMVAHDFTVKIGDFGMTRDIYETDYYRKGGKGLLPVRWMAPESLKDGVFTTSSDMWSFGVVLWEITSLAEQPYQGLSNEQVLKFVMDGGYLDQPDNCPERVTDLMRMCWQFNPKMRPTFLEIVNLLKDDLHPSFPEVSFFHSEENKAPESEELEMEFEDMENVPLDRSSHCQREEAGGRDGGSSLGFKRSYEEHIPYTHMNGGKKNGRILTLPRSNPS

[5] = in vivo; cited from earlier work

Substance: Insulin: recombinant human insulin, unmodified
- time after which blood glucose increased (STZ diabetic mice [1]): ~ 120 min
- BGL correction over three IPGTT cycles [2]: failed during the first IPGTT cycle

Substance: Insulin Detemir
- blood glucose throughout 5 weeks of repeat dosing (STZ diabetic mice [3]; complexes every 5 d, 10.4 mg/kg, Insulin Detemir daily 1 IU/kg, 3 h fast): did not provide sustained blood glucose correction
- body weight reduction from pre-STZ levels (STZ diabetic mice [3]; daily dosing): ~ 20%
- blood glucose control with daily administration ([4]; 1 IU/kg daily): did not sustain blood glucose control when this was not combined with overnight fasting
- blood glucose level after 3 h, day 0 challenge ([4]; overnight-fasted, complexes 10.4 mg/kg, Insulin Detemir 1 IU/kg): 71 mg/dL
- insulin receptor binding affinity relative to unmodified insulin (insulin receptor): ~ 25%

Substance: Insulin Glargine
- duration of action [5]: 24 to 36 h
